From patent publication US20040185566A1, “Polypeptides toxic to nematodes and methods of use” (priority 2003, published 2004)
Where two headings read alike, the source gives them in different places. Where a SMILES comes first, the peptide text is derived from it. [ ]: non-standard residue; d: D form. The star is where a group is joined. Sta = CC(C)C[C@H](N)[C@@H](O)CC(=O)O; Isovaleryl = CC(C)CC(=O)*

Target: SMP #1 (Serratia marcescens, UniProt P23694, N428Q/P266L)
Format: biochemical, S. marcescens NRRL B-23112

CC(C)C[C@H](NC(=O)[C@@H](O)[C@H](N)Cc1ccccc1)C(=O)O [bestatin]
inhibition of SMP #1 proteolytic activity (bestatin 80 μg/ml): not inhibited

CC(C)C[C@H](NC(=O)[C@@H](NC(=O)N[C@@H](Cc1ccccc1)C(=O)O)[C@@H]1CCN=C(N)N1)C(=O)N[C@H](C=O)Cc1ccccc1 [chymostatin]
inhibition of SMP #1 proteolytic activity (chymostatin 50 μg/ml): not inhibited

CC(=O)N[C@@H](CC(C)C)C(=O)N[C@@H](CC(C)C)C(=O)N[C@H](C=O)CCCNC(=N)N [leupeptin]
inhibition of SMP #1 proteolytic activity (leupeptin 4 μg/ml): not inhibited

CC(C)CC(=O)N[C@H](C(=O)N[C@H](C(=O)N[C@@H](CC(C)C)[C@@H](O)CC(=O)N[C@@H](C)C(=O)N[C@@H](CC(C)C)[C@@H](O)CC(=O)O)C(C)C)C(C)C [pepstatin] (Isovaleryl-VV[Sta]A[Sta]-OH)
inhibition of SMP #1 proteolytic activity (pepstatin 4 μg/ml): not inhibited

O=S(=O)(F)Cc1ccccc1 [phenylmethylsulfonyl fluoride]
inhibition of SMP #1 proteolytic activity (phenylmethylsulfonyl fluoride 400 μ/ml): not inhibited

CC(C)C[C@H](NP(=O)(O)O[C@@H]1O[C@@H](C)[C@H](O)[C@@H](O)[C@H]1O)C(=O)N[C@@H](Cc1c[nH]c2ccccc12)C(=O)O [phosphoramidon]
inhibition of SMP #1 proteolytic activity (phosphoramidon 660 μ/ml): not inhibited
